In patent US4235902A, “Pesticidal carbamate esters of 5-oximino-1,3-oxazolidin-4-ones” (priority 1976, dated 1980):

Experiments:
[1] = system: southern armyworm (Prodenia eridania, (Cram.)); test: Southern armyworm leaf spray test; type: in vivo; parameters: key: A: excellent control; B: partial control; C: no control; settings: 500 parts per million, larvae, three days
Procedure: (§1) Suspensions of the test compounds were prepared by dissolving one gram of compound in 50 milliliters of acetone in which had been dissolved 0.1 gram (10 percent of the weight of compound) of an alkylphenoxy polyethoxyethanol surfactant, as an emulsifying or dispersing agent. The resulting solution was mixed into 150 milliliters of water to give roughtly 200 milliliters of a suspension containing the compound in finely divided form. The thus-prepared stock suspension contained 0.5 percent by weight of compound. The test concentrations in parts per million by weight employed in the tests described hereinbelow were obtained by appropriate dilutions of the stock suspension with water. The test procedures were as follows:
SOUTHERN ARMYWORM LEAF SPRAY TEST
Larvae of the southern armyworm (Prodenia eridania, (Cram.)), reared on Tendergreen bean plants at a temperature of 80±5° F. and a relative humidity of 50±5 per cent, constituted the test insects.
The test compounds were formulated by diluting the stock suspension with water to give a suspension containing 500 parts of test compound per million parts of final formulation. Potted Tendergreen bean plants of standard height and age were placed on a revolving turntable and sprayed with 100-110 milliliters of test compound formulation by use of a DeVilbiss spray gun set at 10 psig air pressure. This application, which lasted 25 seconds, was sufficient to wet plants to run-off. As a control, 100-110 milliliters of a water-acetone-emulsifier solution containing no test compound were also sprayed on infested plants. When dry, the paired leaves were separated and each one was placed in a 9 centimeter Petri dish lined with moistened filter paper. Five randomly selected larvae were introduced into each dish and the dishes were closed. The closed dishes were labeled and held at 80°-85° F. for three days. Although the larvae could easily consume the whole leaf within twenty-four hours, no more food was added. Larvae which were unable to move the length of the body, even upon stimulation by prodding, were considered dead. Per cent mortality was recorded for various concentration levels.
(§2) In these tests the pesticidal activity of the compounds against aphid, mite, Southern Armyworm, Mexican Bean Beetle, nematodes and house fly was rated as follows: […]

[2] = system: Mexican bean beetle (Epilachna varivestis, Muls.); test: Mexican bean beetle leaf spray test; type: in vivo; parameters: key: A: excellent control; B: partial control; C: no control; settings: 500 parts per million, fourth instar larvae, three days
Procedure: as §1
MEXICAN BEAN BEETLE LEAF SPRAY TEST
Fourth instar larvae of the Mexican bean beetle (Epilachna varivestis, Muls.), reared on Tendergreen bean plants at a temperature of 80±5° F. and 50±5 per cent relative humidity, were the test insects.
The test compounds were formulated by diluting the stock suspension with water to give a suspension containing 500 parts of test compound per million parts of final formulation. Potted Tendergreen bean plants of standard height and age were placed on a revolving turntable and sprayed with 100-110 milliliters of test compound formulation by use of a DeVilbiss spray gun set at 10 psig air pressure. This application, which lasted 25 seconds, was sufficient to wet plants to run-off. As a control 100-110 milliliters of a water-acetone-emulsifier solution containing no test compound were also sprayed on infested plants. When dry, the paired leaves were separated and each was placed in a 9 centimeter Petri dish lined with moistened filter paper. Five randomly selected larvae were introduced into each dish, and the dishes were closed. The closed dishes were labeled and held at a temperature of 80±5° F. for three days. Although the larvae could easily consume the leaf within 24 to 48 hours, no more food was added. Larvae which were unable to move the length of the body, even upon stimulation, were considered dead.
as §2

[3] = system: house flies (Musca domestica, L.); test: Fly bait test; type: in vivo; parameters: key: A: excellent control; B: partial control; C: no control; settings: 500 parts per million in sugar bait; twenty four hours
Procedure: as §1
Four to six day old adult house flies (Musca domestica, L.), reared according to the specifications of the Chemical Specialities Manufacturing Association (Blue Book, McNair-Dorland Co., N. Y. 1954; pages 243-244, 261) under controlled conditions of 80±5° F. and 50±5 per cent relative humidity, were the test insects. The flies were immobilized by anesthetizing with carbon dioxide and twenty five immobilized individuals, males and females, were transferred to a cage consisting of a standard food strainer about five inches in diameter which was inverted over a wrapping-paper-covered surface. The test compounds were formulated by diluting the stock suspension with a 10 per cent (by weight) sugar solution to give a suspension containing 500 parts of test compound per million parts of final formulation, by weight. Ten milliliters of the test formulation were added to a souffle cup containing a one-inch square of an absorbent cotton pad. This bait cup was introduced and centered on the blotting paper under the food strainer prior to admitting the anesthetized flies. The caged flies were allowed to feed on the bait for twenty four hours, at a temperature of 80±5° F. and the relative humidity of 50±5 per cent.
as §2

[4] = Acute oral (peroral) toxicity to mammals; settings: in vivo, rat, mortality rate of 50 percent
Procedure: Certain of these compositions were also evaluated to determine their peroral toxicity to mammals. The animal selected for this experiment was the rat. The test results obtained are expressed in terms of the number of milligrams of compositions per kilogram of weight of the animal required to achieve a mortality rate of 50 percent (LD50).

[5] = system: two-spotted mite (Tetranychus urticae Koch); test: Mite foliage spray test; type: in vivo; parameters: key: A: excellent control; B: partial control; C: no control; settings: 500 parts per million, six days
Procedure: as §1
Adults and nymphal stages of the two-spotted mite (Tetranychus urticae Koch), reared on Tendergreen bean plants at 80±5 per cent relative humidity, were the test organisms. Infested leaves from a stock culture were placed on the primary leaves of two bean plants six to eight inches in height, growing in a two-and-a-half inch clay pot. 150-200 Mites, a sufficient number for testing, transferred from the excised leaves to the fresh plants in a period of twenty four hours. Following the twenty four hour transfer period, the excised leaves were removed from the infested plants. The test compounds were formulated by diluting the stock suspension with water to give a suspension containing 500 parts of test compound per million parts of final formulation. The potted plants (one pot per compound) were placed on a revolving turntable and sprayed with 100-110 milliliters of test compound formulation by use of a DeVilbiss spray gun set at 40 psig. air pressure. This application, which lasted 25 seconds, was sufficient to wet the plants to run-off. As a control, 100-110 milliliteres of a water solution containing acetone and emulsifier in the same concentrations as the test compound formulation, but containing no test compound, were also sprayed on infested plants. The sprayed plants were held at 80±5 per cent relative humidity for six days, after which a mortality count of motile forms was made. Microscopic examination for motile forms was made on the leaves of the test plants. Any individual which was capable of locomotion upon prodding was considered living.
as §2

[6] = system: bean aphid (Aphis fabae Scop.); test: Bean aphid foliage spray test; type: in vivo; parameters: key: A: excellent control; B: partial control; C: no control; settings: 500 parts per million, 24 hour
Procedure: as §1
BEAN APHID FOLIAGE SPRAY TEST
Adults and nymphal stages of the bean aphid (Aphis fabae Scop.) reared on potted dwarf nasturtium plants at 64°-70° F. and 50-70 per cent relative humidity, constituted the test insects. For testing purposes, the number of aphids per pot was standardized to 100-150 by trimming plants containing excess aphids.
The test compounds were formulated by diluting the stock suspension with water to give a suspension containing 500 parts of test compound per million parts of final formulation.
The potted plants (one pot per compound tested) infested with 100-150 aphids, were placed on a revolving turntable and sprayed with […] of test compound formulation by use of a DeVilbiss spray gun set at 40 psig. air pressure. This application, which lasted 25 seconds, was sufficient to wet the plants to run-off. As a control, 100-110 milliliters of a water-acetone-emulsifier solution containing no test compound were also sprayed on infested plants. After spraying, the pots were placed on their sides on a sheet of white standard mimeograph paper which had been previously ruled to facilitate counting. Temperature and humidity in the test room during the 24 hour holding period were 65°-70° F. and 50-70 per cent, respectively. Aphids which fell onto the paper and were unable to remain standing after being uprighted were considered dead. Aphids remaning on the plants were observed closely for movement and those which were unable to move the length of the body upon stimulation by prodding were considered dead. Per cent mortality was recorded for various concentration levels.
as §2

[7] = system: root-knot nematode, Meloidogyne incognita var. acrita; test: Nematocide test; type: in vivo; parameters: key: A: excellent control; B: partial control; C: no control; settings: 3.33 m.g. per jar; galling of cucumber roots rated after approximately 3 weeks
Procedure: The test organism used was the infective migratory larvae of the root-knot nematode, Meloidogyne incognita var. acrita, reared in the greenhouse on roots of cucumber plants. Infected plants were removed from the culture, and the roots are chopped very finely. A small amount of this inoculum was added to a pint jar containing approximately 180 cc. of soil. The jars were capped and incubated for one week at room temperature. During this period eggs of the nematode were hatched, and the larval forms migrated into the soil.
Ten ml. of the test formulation were added to each of the two jars for each dosage tested. Following the addition of chemical, the jars were capped, and the contents thoroughly mixed on a ball mill for 5 minutes.
The test compounds were formulated by a standard procedure of solution in acetone addition of an emulsifier, and dilution with water. Primary screening tests were conducted at 3.33 m.g. of the test compound per jar.
The jars were left capped at room temperature for a period of 48 hours, and the contents then transferred to 3 inch pots. Subsequently, the pots were seeded to cucumber as an indicator crop and placed in the greenhouse where they were cared for in the normal fashion for approximately 3 weeks.
The cucumber plants were then taken from the pots, the soil removed from the roots, and the amount of galling visually rated.
as §2

Structure (SMILES) | Biological Activity: Southern Army Worm [1] | Biological Activity: Bean Beetle [2] | Biological Activity: Housefly [3] | LD50 [4] [mg/kg] | Biological Activity: Mite [5] | Biological Activity: Aphid [6] | Biological Activity: Nematode [7]
CNC(=O)ON=C1OCC(C)(C)N(C)C1=O | C | A | A | 126 | A | A | A
CCC1COC(=NOC(=O)NC)C(=O)N1C (centres unmarked) | A | C | A | 23.8 | A | A | C
CCC1COC(=NOC(=O)N(C)SC(Cl)(Cl)Cl)C(=O)N1C (centres unmarked) | C | A | A | – | A | A | A
CCN1CCOC(=NOC(=O)NC)C1=O | C | C | A | – | A | A | C
CNC(=O)ON=C1OCCN(C(C)C)C1=O | C | C | A | – | C | A | –
CCCN1CCOC(=NOC(=O)NC)C1=O | A | B | A | – | A | A | C
CNC(=O)ON=C1OC(C)CN(C)C1=O (centres unmarked) [2-Methylcarbamoyloximino-4,-6-dimethyltetrahydro-1,4-oxazin-3-one] | A | A | A | – | A | A | A
CNC(=O)ON=C1OCCN(C)C1=O [2-Methylcarbamoyloximino-4-methyltetrahydro1,4-oxazin-3-one] | A | A | A | 343 | A | A | A
CN(SC(Cl)(Cl)Cl)C(=O)ON=C1OCC(C)(C)N(C)C1=O [2-[N-Trichloromethanesulfenyl-N-methyl/carbamoyloximino]-4,5,5-trimethyltetrahydro, -1,4-oxazin-3-one] | C | B | A | 794 | A | A | –
CN1CCOC(=NOC(=O)N(C)SC(Cl)(Cl)Cl)C1=O [2-[N-Trichloromethanesulfenyl-N-methylcarbamoyloximino]-4-methyltetrahydro-1,4-oxazin-3-one] | C | A | A | – | B | A | A
